From patent US20140287916A1, “PESTICIDAL COMPOUNDS” (SYNGENTA PARTICIPATIONS AG, priority 2011, published 2014)

Structure (SMILES)	melting point [°C]
O=C(NCC1(c2nc(C3CC3)cs2)CC1)c1ccccc1C(F)(F)F [A.10, N-[[1-(4-cyclopropylthiazol-2-yl)cyclopropyl]methyl]-2-(trifluoromethyl)benzamide]	83 to 84
O=C(NCC1(c2nc(Cl)cs2)CC1)c1cccnc1C(F)(F)F [A.21, N-[[1-(4-chlorothiazol-2-yl)cyclopropyl]methyl]-2-(trifluoromethyl)pyridine-3-carboxamide]	146 to 147
O=C(NCC1(c2ncc(C(F)(F)F)s2)CC1)c1ccccc1C(F)(F)F [A.29, 2-(trifluoromethyl)-N-[[1-[5-(trifluoromethyl)thiazol-2-yl]cyclopropyl]methyl]benzamide]	94 to 96
